Results: paper PMC11531485, “Examining prestructured β-actin peptides as substrates of histidine methyltransferase SETD3” (Scientific Reports, 2024)
Positions of bridges follow the written chain, without caps; N, C: chain ends. Non-standard residues stand in square brackets, D forms with d. Residues, ends and D or L forms follow the SMILES beside them. No end group written: not given here. Orn = NCCC[C@H](N)C(=O)O

Experiments:
human SETD3 [1] = biological target: T1, human SETD3 (Homo sapiens, UniProt Q86TU7); assay: MALDI-TOF MS enzymatic substrate scope assay (SETD3-catalyzed methylation of βA peptides); type: biochemical; details: 1 µM SETD3, 10 µM βA peptide, 100 µM SAM, 25 mM Tris, 20 mM NaCl, pH 9.0, 37 °C; for SETD3-catalyzed methylation after 3 h: N = 2
T1 construct: His6 (N); made in house; host or cells: E. coli BL21(DE3)
T1 sequence (Q86TU7 1-594): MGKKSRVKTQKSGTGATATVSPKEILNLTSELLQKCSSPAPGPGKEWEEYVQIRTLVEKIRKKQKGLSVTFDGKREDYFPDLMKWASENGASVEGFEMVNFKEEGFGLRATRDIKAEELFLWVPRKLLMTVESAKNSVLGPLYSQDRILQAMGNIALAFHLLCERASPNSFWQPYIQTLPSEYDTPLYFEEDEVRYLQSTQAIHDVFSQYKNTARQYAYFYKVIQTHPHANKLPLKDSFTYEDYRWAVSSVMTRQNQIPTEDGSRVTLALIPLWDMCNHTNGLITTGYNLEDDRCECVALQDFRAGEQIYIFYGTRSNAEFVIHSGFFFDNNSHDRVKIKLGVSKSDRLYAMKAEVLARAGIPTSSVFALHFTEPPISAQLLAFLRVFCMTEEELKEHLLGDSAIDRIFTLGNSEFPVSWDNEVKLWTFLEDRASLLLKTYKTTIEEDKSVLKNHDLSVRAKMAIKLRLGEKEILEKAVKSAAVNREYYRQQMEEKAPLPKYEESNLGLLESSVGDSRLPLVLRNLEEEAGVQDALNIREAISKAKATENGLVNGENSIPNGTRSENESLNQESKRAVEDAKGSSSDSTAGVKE
Protocol: We examined conformationally restrained βA peptides and linear controls as substrates for the recombinantly expressed human SETD3 employing MALDI-TOF MS to detect a characteristic + 14 Da mass increase upon methylation. Enzymatic reactions were evaluated using standard conditions (1 µM SETD3, 10 µM βA, 100 µM SAM) in methylation buffer (25 mM Tris, 20 mM NaCl, pH = 9.0 at 37 °C)[21]. The enzymatic reaction was quenched with 10% TFA in MilliQ water (1:1 v/v) at 1 h and 3 h before mass spectrometric analysis (Figs . 4 and S3-S4). […] Finally, azide-alkyne Cu^I-mediated Huisgen 1,3-dipolar cycloaddition yields peptide 11 that was poorly (14%) methylated by SETD3 after 3 h under standard conditions (Figs. 4L and S4L). […] Taken together, these findings illustrate an overall preference of human SETD3 for flexible βA peptides, which facilitates βA-H73 insertion into the active site. Introduction of flexible macrocycles results in an overall reduced methylation by SETD3, while bulky or rigidifying moieties present within the macrocycles render the βA peptides non-reactive to methylation by SETD3.
Fig. 4 MALDI-TOF MS data showing SETD3-catalyzed (1 µM) methylation of βA peptides (10 µM) in the presence of SAM (100 µM) in reaction buffer (25 mM Tris, 20 mM NaCl, pH = 9.0) after 3 h at 37 °C. (A) βA, (B) 1, (C) 2, (D) 3, (E) 4, (F) 5, (G) 6, (H) 7, (I) 8, (J) 9, (K) 10, (L) 11. Control reactions in the absence of SETD3 are shown in black, whereas SETD3-catalyzed reactions are shown in red.
SETD3 substrate scope experiments towards βA peptides were performed by incubation of βA peptides (10 µM) in methylation buffer (25 mM Tris, 20 mM NaCl, pH = 9.0) in the presence of SAM (100 µM) and SETD3 (1 µM) in a final volume of 50 µL for 1 and 3 h at 37 °C while shaking at 750 rpm in an Eppendorf Thermomixer C. The reaction was quenched by addition of 10% TFA in MilliQ H2O (1:1). The reactions were aliquoted and mixed with α-cyano-4-hydroxycinnamic acid dissolved in MilliQ H2O and ACN (1:1, v/v) with 0.1% TFA. The aliquots were loaded onto a MTP 384 polished steel target for MALDI-TOF analysis using a UltrafleXtreme and conversion to methylated product was monitored.

[2] = biological target: human SETD3 histidine methyltransferase (human) (UniProt Q86TU7)
human SETD3 [3] = biological target: T1, human SETD3; assay: MALDI-TOF MS methylation kinetics assay (Michaelis-Menten, steady state); type: biochemical; details: 200 nM SETD3, 3.125-150 µM peptide, 100 µM SAM, pH 9.0, 37 °C; for Km / kcat: 25 mM Tris, 20 mM NaCl, MALDI-TOF MS, duplicate, mean ± SE, SEM
Protocol: (§1) Catalytic efficiencies were explored for SETD3-catalyzed methylation of linear βA peptides 1, 6, 8 and 10 (Fig. 5; Table 1). Kinetic parameters were determined using MALDI-TOF MS assays under steady-state conditions by incubation with saturating amounts of SAM (100 µM)[23]. Addition of SETD3 (200 nM) to varying concentrations of linear βA peptides (0–150 µM) in reaction buffer initiated the reaction, upon which the mixture was incubated at 37 °C and quenched at timepoints that guarantee v0-reaction rates for SETD3-catalyzed methylation.
(§2) Fig. 5 Michaelis–Menten kinetics of linear βA peptides at varying concentrations (3.125-150 µM) by SETD3 (200 nM) in presence of saturating amounts of SAM (100 µM) in reaction buffer (25 mM Tris, 20 mM NaCl, pH = 9.0) at 37 °C.
(§3) Kinetics evaluation was carried out with a MALDI-TOF MS assay under steady state conditions. βA peptides (3.125–150 µM) and SAM (100 µM) were dissolved in methylation buffer (25 mM Tris, 20 mM NaCl, pH = 9.0), upon which the reaction was initiated by addition of SETD3. Reactions were incubated at 37 °C and shaken at 750 rpm Eppendorf Thermomixer C for 30 min, upon which the reactions were quenched by addition of 10% TFA in MilliQ water (1:1). Reactions were aliquoted and mixed with α-cyano-4-hydroxycinnamic acid dissolved in MilliQ H2O and ACN (1:1, v/v) with 0.1% TFA. The aliquots were loaded onto a MTP 384 polished steel target for MALDI-TOF analysis using a UltrafleXtreme. Methylated product was quantified by determining the combined integrals of the various ionic species of the methylated product. Kinetic parameters were subsequently determined by plotting V0 values and actin peptide concentrations and fitting them to the Michaelis–Menten equation using GraphPad Prism software. Experiments were performed in duplicate and values are reported as mean [drawing 1] standard error (SE) (Figs. S3-S4).

[4] = biological target: T2, human SETD3 histidine methyltransferase (human, UniProt Q86TU7 1-594)
T2 sequence (looked up): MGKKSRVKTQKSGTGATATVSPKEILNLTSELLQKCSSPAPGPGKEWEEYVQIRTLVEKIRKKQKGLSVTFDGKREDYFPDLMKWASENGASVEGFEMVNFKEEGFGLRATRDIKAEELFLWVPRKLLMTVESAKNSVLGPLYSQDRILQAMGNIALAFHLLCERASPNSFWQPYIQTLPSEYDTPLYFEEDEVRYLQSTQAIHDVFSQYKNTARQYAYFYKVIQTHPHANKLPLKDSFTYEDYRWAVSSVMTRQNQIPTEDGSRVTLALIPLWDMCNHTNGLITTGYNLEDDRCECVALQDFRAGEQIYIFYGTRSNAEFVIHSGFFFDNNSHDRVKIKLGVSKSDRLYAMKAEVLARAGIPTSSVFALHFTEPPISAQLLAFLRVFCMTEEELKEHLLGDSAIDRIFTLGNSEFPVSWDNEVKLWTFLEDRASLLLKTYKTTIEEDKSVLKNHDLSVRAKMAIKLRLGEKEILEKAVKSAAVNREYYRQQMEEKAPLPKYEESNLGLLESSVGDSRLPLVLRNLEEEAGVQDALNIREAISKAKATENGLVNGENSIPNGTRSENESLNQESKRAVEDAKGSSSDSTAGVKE

[5] = substrate: CC[C@H](C)[C@H](NC(=O)CNC(=O)[C@H](Cc1c[nH]cn1)NC(=O)[C@H](CCC(=O)O)NC(=O)[C@@H](NC(=O)[C@@H]1CCCN1C(=O)[C@H](Cc1ccc(O)cc1)NC(=O)[C@H](CCCCN)NC(=O)[C@H](CC(C)C)NC(=O)[C@@H](N)[C@@H](C)O)[C@@H](C)CC)C(=O)N[C@H](C(=O)N[C@H](C(=O)N[C@@H](CC(N)=O)C(=O)N[C@@H](Cc1c[nH]c2ccccc12)C(=O)N[C@@H](CC(=O)O)C(=O)N[C@@H](CC(=O)O)C(N)=O)[C@@H](C)O)C(C)C; assay: MALDI-TOF MS methylation kinetics assay (Michaelis-Menten, steady state); type: biochemical, human; details: other: 200 nM SETD3, 3.125-150 µM peptide, 100 µM SAM, 25 mM Tris, 20 mM NaCl, pH 9.0, 37 °C, duplicate, mean ± SE
Protocol: as §1, §2, §3

CC[C@H](C)[C@H](NC(=O)[C@@H]1CCCN1C(=O)[C@H](Cc1ccc(O)cc1)NC(=O)[C@H](CCCCN)NC(=O)[C@H](CC(C)C)NC(=O)[C@@H](N)[C@@H](C)O)C(=O)N[C@H]1CCC(=O)NCCCC[C@@H](C(=O)N[C@H](C(=O)N[C@H](C(=O)N[C@@H](CC(N)=O)C(=O)N[C@@H](Cc2c[nH]c3ccccc23)C(=O)N[C@@H](CC(=O)O)C(=O)N[C@@H](CC(=O)O)C(N)=O)[C@@H](C)O)C(C)C)NC(=O)CNC(=O)[C@H](Cc2c[nH]cn2)NC1=O [compound 9] (H-TLKYPIEHGKVTNWDD-NH2; lactam 7-10)
SETD3-catalyzed methylation after 3 h (human SETD3 [1]): 25%

linear βA peptide 8 (I75K) (from UniProt P60709 66-81)
Km of SETD3-catalysed methylation, MALDI-TOF MS steady-state kinetics (200 nM SETD3, 100 µM SAM, pH 9.0, 37 °C) [2]: 25.1 µM
kcat of SETD3-catalysed methylation, MALDI-TOF MS steady-state kinetics (200 nM SETD3, 100 µM SAM, pH 9.0, 37 °C) [2]: 246 min^-1
kcat/Km of SETD3-catalysed methylation, MALDI-TOF MS steady-state kinetics (200 nM SETD3, 100 µM SAM, pH 9.0, 37 °C) [2]: 9.8 µM^-1min^-1

TLKYPICHGCVTNWDD (also: sidechain bridge or staple (positions not given here)) [compound 3, stapled bis-thiol alkylated βA peptide]
SETD3-catalyzed methylation after 3 h (human SETD3 [1]): 35%

TLKYPICHGCVTNWDD [compound 1, linear dicysteine βA66-81 control peptide]
Km (human SETD3 [3]): 75.7 ± 20 µM
kcat (human SETD3 [3]): 0.983 ± 0.125 s⁻¹
kcat/Km (human SETD3 [3]): 13000 M⁻¹ s⁻¹
SETD3-catalyzed methylation (conversion) within 1 h (human SETD3 [1]): full conversion

TLKYPICHGCVTNWDD (also: sidechain bridge or staple (positions not given here)) [compound 4, βA peptide stapled with hexafluorobenzene]
SETD3-catalyzed methylation after 3 h (in words) (human SETD3 [1]): inert to methylation

TLKYPIEHG[Orn]VTNWDD [compound 6, linear lactam control, βA-I75 substituted by Orn]
Km (human SETD3 [3]): 45.2 ± 8.1 µM
kcat (human SETD3 [3]): 3.68 ± 0.267 s⁻¹
kcat/Km (human SETD3 [3]): 81800 M⁻¹ s⁻¹
SETD3-catalyzed methylation (conversion) within 1 h (human SETD3 [1]): completely methylated

TLKYPIEHG[Orn]VTNWDD (also: sidechain bridge or staple (positions not given here)) [compound 7, i, i + 3 lactam-bridged βA peptide (Glu72-Orn75)]
SETD3-catalyzed methylation after 3 h (human SETD3 [1]): 41%

linear βA peptide 6 (Ile75 replaced by ornithine) (from UniProt P60709 66-81)
Km of SETD3-catalysed methylation, MALDI-TOF MS steady-state kinetics (200 nM SETD3, 100 µM SAM, pH 9.0, 37 °C) [4]: 45.2 µM
kcat of SETD3-catalysed methylation, MALDI-TOF MS steady-state kinetics (200 nM SETD3, 100 µM SAM, pH 9.0, 37 °C) [4]: 221 min^-1
kcat/Km of SETD3-catalysed methylation, MALDI-TOF MS steady-state kinetics (200 nM SETD3, 100 µM SAM, pH 9.0, 37 °C) [4]: 4.91 µM^-1min^-1

TLKYPICHGCVTNWDD (also: sidechain bridge or staple (positions not given here)) [compound 2, stapled bis-thiol alkylated βA peptide]
SETD3-catalyzed methylation after 3 h (human SETD3 [1]): 30%

TLKYPILys(N3)HGPraVTNWDD (sidechain bridge or staple) [compound 11, triazole-stapled βA peptide from azide-alkyne cycloaddition of 10]
SETD3-catalyzed methylation after 3 h (human SETD3 [1]): 14%

TLKYPILys(N3)HGPraVTNWDD [compound 10, linear click-control with azido-lysine and propargylglycine]
Km (human SETD3 [3]): 77.8 ± 14 µM
kcat (human SETD3 [3]): 1.72 ± 0.15 s⁻¹
kcat/Km (human SETD3 [3]): 22000 M⁻¹ s⁻¹
SETD3-catalyzed methylation after 3 h (in words) (human SETD3 [1]): full conversion

B1: human SETD3 (Homo sapiens) (protein)
chain: MGKKSRVKTQKSGTGATATVSPKEILNLTSELLQKCSSPAPGPGKEWEEYVQIRTLVEKIRKKQKGLSVTFDGKREDYFPDLMKWASENGASVEGFEMVNFKEEGFGLRATRDIKAEELFLWVPRKLLMTVESAKNSVLGPLYSQDRILQAMGNIALAFHLLCERASPNSFWQPYIQTLPSEYDTPLYFEEDEVRYLQSTQAIHDVFSQYKNTARQYAYFYKVIQTHPHANKLPLKDSFTYEDYRWAVSSVMTRQNQIPTEDGSRVTLALIPLWDMCNHTNGLITTGYNLEDDRCECVALQDFRAGEQIYIFYGTRSNAEFVIHSGFFFDNNSHDRVKIKLGVSKSDRLYAMKAEVLARAGIPTSSVFALHFTEPPISAQLLAFLRVFCMTEEELKEHLLGDSAIDRIFTLGNSEFPVSWDNEVKLWTFLEDRASLLLKTYKTTIEEDKSVLKNHDLSVRAKMAIKLRLGEKEILEKAVKSAAVNREYYRQQMEEKAPLPKYEESNLGLLESSVGDSRLPLVLRNLEEEAGVQDALNIREAISKAKATENGLVNGENSIPNGTRSENESLNQESKRAVEDAKGSSSDSTAGVKE
notes: His6 (N); made in house; host or cells: E. coli BL21(DE3)
Km [5]: 25.6 ± 4.9 µM
kcat [5]: 2.47 ± 0.145 s⁻¹
kcat/Km [5]: 96300 M⁻¹ s⁻¹
